Source: patent US10770169B2, “Method of providing a treatment to a subject based on a dynamic pathway map” (THE REGENTS OF THE UNIVERSITY OF CALIFORNIA, priority 2010, dated 2020)
Like-named read-outs stand apart in the source and are kept apart here.

System: panel of 55 breast cancer cell lines
Assay: Cell growth inhibition assay (Cell Titer Glo, 72 h, 9 doses; GI50, TGI, LC50)
Format: cell-based, human
Conditions: Homo sapiens, read-out: GI50 (converted)
[1] = AU565, AU565 cell line, censored GI50 values
[2] = BT-474, BT474 cell line, censored GI50 values
[3] = BT-483, BT483 cell line, censored GI50 values
[4] = BT-549, BT549 cell line, censored GI50 values
[5] = CAMA-1, CAMA1 cell line, censored GI50 values
[6] = HCC38, HCC38 cell line, censored GI50 values
[7] = HCC70, HCC70 cell line, censored GI50 values
[8] = HCC202, HCC202 cell line, censored GI50 values
[9] = HCC1187, HCC1187 cell line, censored GI50 values
[10] = HCC1419, HCC1419 cell line, censored GI50 values
[11] = HCC1428, HCC1428 cell line, censored GI50 values
[12] = HCC1500, HCC1500 cell line, censored GI50 values
[13] = HCC1806, HCC1806 cell line, censored GI50 values
[14] = HCC1937, HCC1937 cell line, censored GI50 values
[15] = HCC1954, HCC1954 cell line, censored GI50 values
[16] = HCC2185 cell line, censored GI50 values
[17] = HCC3153 cell line, censored GI50 values
[18] = MCF7, MCF7 cell line, censored GI50 values
[19] = MDA-MB-134-VI, MDAMB134VI cell line, censored GI50 values
[20] = MDA-MB-175-VII, MDAMB175VII cell line, censored GI50 values
[21] = MDA-MB-231, MDAMB231 cell line, censored GI50 values
[22] = MDA-MB-361, MDAMB361 cell line, censored GI50 values
[23] = MDA-MB-415, MDAMB415 cell line, censored GI50 values
[24] = MDA-MB-468, MDAMB468 cell line, censored GI50 values
[25] = SK-BR-3, SKBR3 cell line, censored GI50 values
[26] = SUM52PE, SUM52PE cell line, censored GI50 values
[27] = SUM149PT, SUM149PT cell line, censored GI50 values
[28] = SUM1315MO2, SUM1315MO2 cell line, censored GI50 values
[29] = SUM-159-PT, SUM159PT cell line, censored GI50 values
[30] = UACC-812, UACC812 cell line, censored GI50 values

For COC1=C2C[C@@H](C)C[C@H](OC)[C@H](O)[C@@H](C)/C=C(\C)[C@H](OC(N)=O)[C@@H](OC)/C=C\C=C(/C)C(=O)NC(=CC1=O)C2=O [Geldanamycin], the GI50 (600MPE cell line, censored GI50 values) was 38.9 nM, the GI50 [1] was 51.3 nM and the GI50 (AU565, cell line AU565) was 51.3 nM. It also gave a GI50 [2] of 14.5 nM, a GI50 (BT-474, cell line BT474) of 14.5 nM and a GI50 [3] of 145 nM. It also gave a GI50 (BT-483, cell line BT483) of 145 nM, a GI50 [4] of 5.5 nM and a GI50 (BT-549, cell line BT549) of 5.5 nM. It also gave a GI50 [5] of 79.4 nM, a GI50 (CAMA-1, cell line CAMA1) of 79.4 nM and a GI50 [6] of 28.8 nM. For the same compound, the GI50 (HCC38, cell line HCC38) was 28.8 nM, the GI50 [7] was 93.3 nM and the GI50 (HCC70, cell line HCC70) was 93.3 nM. The GI50 [8] was 1.48 nM, the GI50 (HCC202, cell line HCC202) was 1.48 nM and the GI50 (HCC1143, HCC1143 cell line, censored GI50 values) was 81.3 nM. It also gave a GI50 (HCC1143, cell line HCC1143) of 81.3 nM, a GI50 [9] of 15.8 nM and a GI50 (HCC1187, cell line HCC1187) of 15.8 nM. The GI50 (HCC1395, HCC1395 cell line, censored GI50 values) was 61.7 nM, the GI50 (HCC1395, cell line HCC1395) was 61.7 nM and the GI50 [10] was 32.4 nM. For the same compound, the GI50 (HCC1419, cell line HCC1419) was 32.4 nM, the GI50 [11] was 31.6 nM and the GI50 (HCC1428, cell line HCC1428) was 31.6 nM. The GI50 [12] was 155 nM, the GI50 (HCC1500, cell line HCC1500) was 155 nM and the GI50 [13] was 75.9 nM. For the same compound, the GI50 (HCC1806, cell line HCC1806) was 75.9 nM, the GI50 [14] was 29.5 nM and the GI50 (HCC1937, cell line HCC1937) was 29.5 nM. The GI50 [15] was 7.24 nM, the GI50 (HCC1954, cell line HCC1954) was 7.24 nM and the GI50 [16] was 18.2 nM. It also gave a GI50 [17] of 67.6 nM, a GI50 (LY2 cell line, censored GI50 values) of 100 nM and a GI50 [18] of 240 nM. The GI50 (MCF7, cell line MCF7) was 240 nM, the GI50 [19] was 20.9 nM and the GI50 [20] was 17.8 nM. The GI50 [21] was 28.8 nM, the GI50 (MDA-MB-231, cell line MDAMB231) was 28.8 nM and the GI50 [22] was 25.7 nM. The GI50 (MDA-MB-361, cell line MDAMB361) was 25.7 nM, the GI50 [23] was 57.5 nM and the GI50 (MDA-MB-415, cell line MDAMB415) was 57.5 nM. For the same compound, the GI50 (MDA-MB-436, MDAMB436 cell line, censored GI50 values) was 148 nM, the GI50 (MDA-MB-436, cell line MDAMB436) was 148 nM and the GI50 (MDA-MB-453, MDAMB453 cell line, censored GI50 values) was 19.5 nM. The GI50 (MDA-MB-453, cell line MDAMB453) was 19.5 nM, the GI50 [24] was 27.5 nM and the GI50 (MDA-MB-468, cell line MDAMB468) was 27.5 nM. The GI50 [25] was 16.2 nM, the GI50 (SK-BR-3, cell line SKBR3) was 16.2 nM and the GI50 [26] was 12 nM. It also gave a GI50 (SUM52PE, cell line SUM52PE) of 12 nM, a GI50 [27] of 6.03 nM and a GI50 (SUM149PT, cell line SUM149PT) of 6.03 nM. The GI50 (SUM185PE, SUM185PE cell line, censored GI50 values) was 20 nM, the GI50 (SUM185PE, cell line SUM185PE) was 20 nM and the GI50 [28] was 38 nM. It also gave a GI50 [29] of 6.31 nM, a GI50 (SUM-159-PT, cell line SUM159PT) of 6.31 nM and a GI50 [30] of 12.3 nM. It also gave a GI50 (UACC-812, cell line UACC812) of 12.3 nM, a GI50 (UACC-893, UACC893 cell line, censored GI50 values) of 11 nM and a GI50 (UACC-893, cell line UACC893) of 11 nM. It also gave a GI50 (ZR-75-1, ZR751 cell line, censored GI50 values) of 117 nM, a GI50 (ZR-75-1, cell line ZR751) of 117 nM and a GI50 (ZR-75-30, ZR7530 cell line, censored GI50 values) of 7.08 nM. It also gave a GI50 (ZR-75-30, cell line ZR7530) of 7.08 nM, a GI50 (ZR-75B, ZR75B cell line, censored GI50 values) of 93.3 nM and a GI50 (ZR-75B, cell line ZR75B) of 93.3 nM. The GI50 (cell line 600MPE) was 38.9 nM, the GI50 (cell line HCC2185) was 18.2 nM and the GI50 (cell line HCC3153) was 67.6 nM. It also gave a GI50 (cell line LY2) of 100 nM, a GI50 (cell line MDAMB134V) of 20.9 nM and a GI50 (cell line MDAMB175V) of 17.8 nM. The GI50 (cell line SUM1315MO) was 38 nM.
CO[C@H]1C[C@@H]2CC[C@@H](C)[C@@](O)(O2)C(=O)C(=O)N2CCCC[C@H]2C(=O)O[C@H]([C@H](C)C[C@@H]2CC[C@@H](O)[C@H](OC)C2)CC(=O)[C@H](C)/C=C(\C)[C@@H](O)[C@@H](OC)C(=O)[C@H](C)C[C@H](C)/C=C/C=C/C=C/1C [Rapamycin] gave a GI50 [1] of 31.6 nM, a GI50 (AU565, cell line AU565) of 31.6 nM and a GI50 (BT-20, BT20 cell line, censored GI50 values) of 13.5 nM. The GI50 (BT-20, cell line BT20) was 13.5 nM, the GI50 [2] was 15.1 nM and the GI50 (BT-474, cell line BT474) was 15.1 nM. It also gave a GI50 [3] of 1.66 nM, a GI50 (BT-483, cell line BT483) of 1.66 nM and a GI50 [4] of 33100 nM. It also gave a GI50 (BT-549, cell line BT549) of 33100 nM, a GI50 [5] of 15.1 nM and a GI50 (CAMA-1, cell line CAMA1) of 15.1 nM. For the same compound, the GI50 [6] was 33.9 nM, the GI50 (HCC38, cell line HCC38) was 33.9 nM and the GI50 [7] was 120 nM. It also gave a GI50 (HCC70, cell line HCC70) of 120 nM, a GI50 [8] of 5.01 nM and a GI50 (HCC202, cell line HCC202) of 5.01 nM. For the same compound, the GI50 [9] was 32.4 nM, the GI50 (HCC1187, cell line HCC1187) was 32.4 nM and the GI50 [10] was 4.37 nM. The GI50 (HCC1419, cell line HCC1419) was 4.37 nM, the GI50 [11] was 51.3 nM and the GI50 (HCC1428, cell line HCC1428) was 51.3 nM. The GI50 [12] was 93300 nM, the GI50 (HCC1500, cell line HCC1500) was 93300 nM and the GI50 [13] was 66100 nM. It also gave a GI50 (HCC1806, cell line HCC1806) of 66100 nM, a GI50 [14] of 1230 nM and a GI50 (HCC1937, cell line HCC1937) of 1230 nM. It also gave a GI50 [15] of 3.55 nM, a GI50 (HCC1954, cell line HCC1954) of 3.55 nM and a GI50 [16] of 1.62 nM. For the same compound, the GI50 [17] was 5620 nM, the GI50 [18] was 145 nM and the GI50 (MCF7, cell line MCF7) was 145 nM. It also gave a GI50 [19] of 6.76 nM, a GI50 (MDA-MB-157, cell line MDAMB157) of 166000 nM and a GI50 [20] of 3.72 nM. For the same compound, the GI50 [21] was 3550 nM, the GI50 (MDA-MB-231, cell line MDAMB231) was 3550 nM and the GI50 [22] was 741 nM. It also gave a GI50 (MDA-MB-361, cell line MDAMB361) of 741 nM, a GI50 [23] of 2.09 nM and a GI50 (MDA-MB-415, cell line MDAMB415) of 2.09 nM. The GI50 (MDA-MB-436, cell line MDAMB436) was 166000 nM, the GI50 [24] was 2820 nM and the GI50 (MDA-MB-468, cell line MDAMB468) was 2820 nM. For the same compound, the GI50 [25] was 60.3 nM, the GI50 (SK-BR-3, cell line SKBR3) was 60.3 nM and the GI50 (SUM44PE cell line, censored GI50 values) was 0.55 nM. It also gave a GI50 [26] of 3.02 nM, a GI50 (SUM52PE, cell line SUM52PE) of 3.02 nM and a GI50 [27] of 9330 nM. The GI50 (SUM149PT, cell line SUM149PT) was 9330 nM, the GI50 (SUM225CWN, SUM225CWN cell line, censored GI50 values) was 16.6 nM and the GI50 (SUM225CWN, cell line SUM225CWN) was 16.6 nM. For the same compound, the GI50 [28] was 3310 nM, the GI50 [29] was 724 nM and the GI50 (SUM-159-PT, cell line SUM159PT) was 724 nM. The GI50 (T47D, T47D cell line, censored GI50 values) was 490 nM, the GI50 (T47D, cell line T47D) was 490 nM and the GI50 [30] was 46.8 nM. For the same compound, the GI50 (UACC-812, cell line UACC812) was 46.8 nM, the GI50 (UACC-893, cell line UACC893) was 166000 nM and the GI50 (cell line HCC2185) was 1.62 nM. For the same compound, the GI50 (cell line HCC3153) was 5620 nM, the GI50 (cell line MDAMB134V) was 6.76 nM and the GI50 (cell line MDAMB175V) was 3.72 nM. The GI50 (cell line SUM44PE) was 0.55 nM and the GI50 (cell line SUM1315MO) was 3310 nM.
